In series [1] the test system is DLD1 BRCA2^-/-. Nature of the series: Cell activity assay (CellTiterGlo), BRCA2 gene knockout DLD1 cancer cells. The conditions noted are these: Homo sapiens, DLD-1, 144 h, read-out: IC50(nM) DLD1 BRCA2^-/-. The format is cell-based. Here is the method:
(§1) • (1) Compound Treatment • a) Preparation of Stock Solutions of Compounds Test compounds were dissolved in DMSO at a concentration of 10 mM or 5 mM, and Olaparib was dissolved in DMSO at a concentration of 10 mM. • b) Compound Storage All compounds dissolved in DMSO were stored in a desiccator at room temperature for short-term storage and transferred to a -20°C refrigerator for long-term storage. • c) Preparation of Working Concentrations of Compounds
(§2) Test compounds were serially diluted in DMSO at a 3-fold gradient to prepare 10 concentration gradients, starting from 10 µM.
(§3) Olaparib was serially diluted in DMSO at a 3-fold gradient to prepare 10 concentration gradients, starting from 10 µM.
(§4) The 384-well plate loaded with the compounds was centrifuged at 1000 rpm for 1 minute.
(§5) • a) Cells were added to the culture medium and incubated in a cell culture incubator at 37°C with 5% CO2. • b) 40 µL of BRCA1- or BRCA2-deficient cells were added to a 384-well plate and incubated overnight at 37°C with 5% CO2. • c) The test compounds were prepared at different concentration gradients on the master plate, and 80 nL of the test compounds and Olaparib were taken from the master plate and added to the 384-well plate containing cells, and incubated at 37°C with 5% CO2 for 6 days. • d) CellTiterGlo (30 µL per well) was added to the 384-well plate, and after incubation at room temperature in the dark for 30 minutes, measurement was performed using an Envision plate reader.
(§6) • a) GraphPad Prism software was used to calculate the ICso and plot the activity curves as a function of concentration. • b) The inhibition of cell activity by the compounds was calculated using the following formula: % Inhibition = [1−(Cmpd−Blank)/(DMSO−Blank)]*100 [formula]
In general terms: Cellular ATP, detected with luciferase, serves as a proxy for viable cell number.

Series [2] concerns UWB1.289 Cells. Briefly: Cell activity assay (CellTiterGlo), BRCA1 gene-deficient ovarian cancer cells UWB1.289. It is filed as cell-based. The conditions noted are these: UWB1289, 144 h, BRCA1 gene-deficient ovarian cancer cells UWB1.289, 6 days incubation. Here is the method: as §1, §2, §3, §4, §5, §6
The nature of series [3]: In-vivo pharmacokinetic study in mice (bioavailability testing). The conditions noted are these: mouse, plasma; oral (PO) and intravenous (IV) routes, female Balb/c nude mice. As for the experimental part:
Test compounds were administered to mice via oral (PO) and intravenous (IV) routes. The test compounds were dissolved at room temperature. The mice used in the study were Balb/c nude mice, all female, aged 6-8 weeks, with a body weight of 20-30 grams. Before administration, the mice had free access to food and water. Blood samples (approximately 0.03 mL per sample) were collected from the vein at appropriate time points. The samples were placed in tubes containing an anticoagulant and stored on ice until centrifugation. Blood samples were collected at 0.083, 0.25, 0.5, 1, 2, 4, 8, and 24 hours after intravenous administration, and at 0.25, 0.5, 1, 2, 4, 8, and 24 hours after oral administration. The blood samples were centrifuged at approximately 4000 rpm at 2-8 °C for 5 minutes. Plasma samples were then collected and stored frozen at approximately -80 °C until analysis. The LC-MS/MS system was used for bioanalytical work. Table 4. Bioavailability Testing

The nature of series [4]: Toxicity assay in mice, repeated dosing at 50 mg/kg, body weight. The conditions noted are these: 50 mg/kg PO once every 3 days, female mice. The format is in vivo. Here is the method: Test compounds were administered to mice via the oral (PO) route. The test compounds were dissolved at room temperature. The mice used in the study were all female, and aged 6-8 weeks. Before administration, the mice had free access to food and water. Vehicle control: 50 mM NaH2PO4, pH 4.0, administered once every 3 days. CX-5461 and Compound H-31 were administered once every 3 days at a dose of 50 mg/kg. If the body weight of the mice decreased by more than 15%, administration was suspended until the body weight recovered, after which administration was resumed.

The test system of series [5] is MDA-MB-436 cancer cells. Briefly: Inhibition of human-derived cancer in mouse model (MDA-MB-436 subcutaneous tumors). The format is in vivo, NOD SCID mice. The conditions noted are these: MDA-MB-436 model, oral, 25 mg/kg once every 3 days. As for the experimental part:
The anti-cancer efficacy of the compounds of the present application was evaluated in NOD SCID mice. Female mice aged 6-8 weeks were subcutaneously inoculated with MDA-MB-436 cancer cells to form tumors. When the tumors reached a size of 100-150 mm^3, the mice were randomly divided into groups, with 6 mice in each group. The administration route was oral administration. Olaparib was administered once a day at a dose of 100 mg/kg for a total of 28 days. The vehicle control group and Compound H-31 were administered once every 3 days at a dose of 25 mg/kg.

In series [6] the test system is human herpesvirus HCMV-AD169. Briefly: Antiviral cell-protective activity, GFP-labeled HCMV-AD169 in MRC5 cells. It is filed as cell-based. Here is the method:
MRC5 cells were seeded in microplates at a specific density and cultured overnight in an incubator at 37 °C with 5% CO2. Serially diluted compounds and GFP-labeled human herpesvirus HCMV-AD169 were added to the microplates. A cell control group (cells without compound treatment or viral infection) and a virus control group (cells infected with the virus but without compound treatment) were set up. The test compounds and control compounds were tested at 8 concentrations, with 3-fold serial dilutions and triplicate wells for each concentration. Meanwhile, the cytotoxicity of the test compounds and control compounds on cells was determined. The cells were cultured in an incubator at 37 °C with 5% CO2 for 7 days. Acumen Cellista was used to detect the GFP fluorescence intensity inside the cells in each well. Cell viability detection reagents CCK-8 or Cell Titer Glo were used to measure cell viability, and the original data were used for calculating the cytotoxicity of the test compounds. GraphPad Prism software was applied to analyze the dose-response curves of the test compounds, calculate the virus inhibition EC50 and cytotoxicity CC50 values, and further calculate the therapeutic index (SI), using the formula SI = CC50/EC50, which was used to evaluate the therapeutic potential of the drug; a higher SI value indicates stronger efficacy of the drug against viruses.

Structures are written as SMILES.

Broadly, the bioavailability is the share of a dose that reaches the circulation, judged against a reference dose that is usually intravenous. Higher therefore signals much systemic uptake. As usually defined, the EC50 is the concentration that produces a half-maximal response.

Regarding `[2H]C([2H])([2H])N1CCCN(c2ccc3c(=O)c(C(=O)NCc4ncccn4)c4sc5ccccc5n4c3n2)CC1` [Compound H-31], the results for the IC50 in series [1] and in series [2] were 12.8 nM and 28.8 nM, respectively. In series [3], this compound showed a bioavailability of 43.1%. Further, the “overall condition / clinical symptoms” value in series [4] (21 days) is on record as “no abnormal clinical symptoms were observed”. Also, in series [4] (after 21 days of repeated administration), the “effect on mouse body weight” value is recorded as “weight trends similar to the control group”. In series [5], the cancer inhibition rate is reported as 82.2%. For the same compound, the EC50 in series [6] (Human betaherpesvirus 5, 168 h, HCMV-AD169 GFP fluorescence, 7 days, read-out: Virus inhibition EC50) was found to be 30 nM. For the same compound, the “SI (CC50/EC50)” value in series [6] (therapeutic index, HCMV-AD169) was more than 101.7.

Source of the values: patent publication EP4703364A1, “QUINOLONE ANALOG AND USE THEREOF” (Horizon Omics Biotech Limited, priority 2023, dated 2024).
